Test results from ChEMBL document CHEMBL5226297, “Small-Molecule Drug Discovery in Triple Negative Breast Cancer: Current Situation and Future Directions” (J Med Chem, 2021).

Legend:
[1] = tested on: Hs-578T; test: Anticancer activity against human Hs-578T cells assessed as cell growth inhibition incubated for 72 hrs by MTT assay; type: functional, cell-based
[2] = tested on: HCC1937; test: Anticancer activity against human HCC1937 cells assessed as cell growth inhibition incubated for 72 hrs by MTT assay; type: functional, cell-based; settings: HCC1937, 72 h
[3] = tested on: HCC70; test: Anticancer activity against human HCC70 cells assessed as cell growth inhibition incubated for 72 hrs by MTT assay; type: functional, cell-based; settings: HCC70, 72 h
[4] = tested on: MDA-MB-436; test: Anticancer activity against human MDA-MB-436 cells assessed as cell growth inhibition incubated for 24 hrs by MTT assay; type: functional, cell-based; settings: MDA-MB-436, 24 h
[5] = tested on: MDA-MB-231; test: Anticancer activity against human MDA-MB-231 cells assessed as cell growth inhibition incubated for 24 hrs by MTT assay; type: functional, cell-based; settings: MDA-MB-231, 24 h
[6] = tested on: BT-549; test: Anticancer activity against human BT-549 cells assessed as cell growth inhibition incubated for 24 hrs by MTT assay; type: functional, cell-based; settings: BT-549, 24 h
[7] = tested on: MDA-MB-468; test: Anticancer activity against human MDA-MB-468 cells assessed as cell growth inhibition by MTT assay; type: functional, cell-based
[8] = tested on: HCC38; test: Anticancer activity against human HCC38 cells assessed as cell growth inhibition by MTT assay; type: functional, cell-based
[9] = tested on: MDA-MB-231; test: cells; settings: Homo sapiens
[10] = tested on: SUM185PE; test: Anticancer activity against human SUM185PE cells assessed as cell growth inhibition incubated for 6 days by CellTiter96 analysis; type: functional, cell-based; settings: 144 h
[11] = tested on: HCC1806; test: Anticancer activity against human HCC1806 cells assessed as cell growth inhibition incubated for 48 hrs by SRB assay; type: functional, cell-based; settings: HCC1806, 48 h
[12] = biological target: N-lysine methyltransferase SMYD2 (Homo sapiens, UniProt Q9NRG4); test: Inhibition of human SMYD2 by western blot assay
Sequence of N-lysine methyltransferase SMYD2 (Q9NRG4 whole entry): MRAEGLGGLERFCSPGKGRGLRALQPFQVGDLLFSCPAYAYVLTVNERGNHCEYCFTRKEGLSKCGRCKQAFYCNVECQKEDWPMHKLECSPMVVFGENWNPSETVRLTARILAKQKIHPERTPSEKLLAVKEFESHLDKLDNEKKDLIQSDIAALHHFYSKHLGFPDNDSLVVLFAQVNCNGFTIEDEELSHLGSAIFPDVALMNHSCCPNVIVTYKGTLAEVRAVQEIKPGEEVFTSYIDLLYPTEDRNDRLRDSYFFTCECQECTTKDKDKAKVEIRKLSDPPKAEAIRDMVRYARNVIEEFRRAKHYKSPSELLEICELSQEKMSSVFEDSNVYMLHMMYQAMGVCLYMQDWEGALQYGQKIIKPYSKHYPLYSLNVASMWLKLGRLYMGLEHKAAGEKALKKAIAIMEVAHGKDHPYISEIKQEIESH

[13] = biological target: Eukaryotic elongation factor 2 kinase (Homo sapiens, UniProt O00418); test: Inhibition of eEF2K (unknown origin) by western blot analysis
Sequence of Eukaryotic elongation factor 2 kinase (O00418 whole entry): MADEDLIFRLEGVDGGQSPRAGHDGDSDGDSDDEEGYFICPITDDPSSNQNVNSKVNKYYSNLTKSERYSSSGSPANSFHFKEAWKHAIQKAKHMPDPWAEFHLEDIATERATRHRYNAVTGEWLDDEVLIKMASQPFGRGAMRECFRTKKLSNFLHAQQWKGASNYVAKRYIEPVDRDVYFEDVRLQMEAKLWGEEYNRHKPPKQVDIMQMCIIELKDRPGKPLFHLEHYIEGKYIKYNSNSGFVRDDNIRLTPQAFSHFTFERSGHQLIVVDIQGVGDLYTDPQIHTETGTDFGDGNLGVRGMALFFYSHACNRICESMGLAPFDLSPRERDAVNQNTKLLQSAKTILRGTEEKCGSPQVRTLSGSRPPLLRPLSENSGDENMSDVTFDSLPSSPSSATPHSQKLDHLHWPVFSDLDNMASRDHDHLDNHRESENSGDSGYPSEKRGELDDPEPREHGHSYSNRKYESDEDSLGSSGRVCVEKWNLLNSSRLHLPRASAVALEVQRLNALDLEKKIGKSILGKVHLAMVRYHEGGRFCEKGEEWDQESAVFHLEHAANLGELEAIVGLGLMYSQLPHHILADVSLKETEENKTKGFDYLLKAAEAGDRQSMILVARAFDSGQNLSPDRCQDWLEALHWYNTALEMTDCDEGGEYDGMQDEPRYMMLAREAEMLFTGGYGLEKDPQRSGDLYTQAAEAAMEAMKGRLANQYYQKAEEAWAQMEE

[14] = Inhibition of cIAP1 (unknown origin); design: species or system Homo sapiens
[15] = tested on: HCC1937; test: Anticancer activity against human HCC1937 cells assessed as cell growth inhibition by MTT assay; type: functional, cell-based
[16] = tested on: BT-549; test: Anticancer activity against human BT-549 cells assessed as cell growth inhibition by MTT assay; type: functional, cell-based
[17] = tested on: MDA-MB-231; test: cells; settings: Homo sapiens, MDA-MB-231, 48 h
[18] = tested on: MDA-MB-231; test: Anticancer activity against human MDA-MB-231 cells assessed as cell growth inhibition incubated for 72 hrs by MTT assay; type: functional, cell-based; settings: MDA-MB-231, 72 h
[19] = tested on: MDA-MB-436; test: Anticancer activity against human MDA-MB-436 cells assessed as cell growth inhibition incubated for 72 hrs by MTT assay; type: functional, cell-based; settings: MDA-MB-436, 72 h
[20] = tested on: HCC70; test: Anticancer activity against human HCC70 cells assessed as cell growth inhibition incubated for 5 days by sulforhodamine B staining based assay; type: functional; settings: HCC70, 120 h
[21] = tested on: SUM149PT; test: Anticancer activity against human SUM149 cells assessed as cell growth inhibition incubated for 5 days by sulforhodamine B staining based assay; type: functional; settings: 120 h
[22] = tested on: HCC1806; test: Anticancer activity against human HCC1806 cells assessed as cell growth inhibition incubated for 5 days by sulforhodamine B staining based assay; type: functional; settings: HCC1806, 120 h
[23] = tested on: HCC1937; test: Anticancer activity against human HCC1937 cells assessed as cell growth inhibition incubated for 5 days by sulforhodamine B staining based assay; type: functional; settings: HCC1937, 120 h
[24] = tested on: BT-20; test: Anticancer activity against human BT-20 cells assessed as cell growth inhibition incubated for 5 days by sulforhodamine B staining based assay; type: functional; settings: BT-20, 120 h
[25] = tested on: MDA-MB-231; test: Anticancer activity against human MDA-MB-231 cells assessed as cell growth inhibition incubated for 5 days by sulforhodamine B staining based assay; type: functional; settings: MDA-MB-231, 120 h
[26] = tested on: SUM-159-PT; test: Anticancer activity against human SUM159 cells assessed as cell growth inhibition incubated for 5 days by sulforhodamine B staining based assay; type: functional; settings: 120 h
[27] = tested on: MDA-MB-231; test: Anticancer activity against human MDA-MB-231 cells assessed as cell growth inhibition; type: functional, cell-based
[28] = tested on: 4T1; test: Anticancer activity against mouse 4T1 cells assessed as cell growth inhibition by MTS assay; type: functional, cell-based

C[C@@H]1COC(Nc2ccc3ncnc(Nc4ccc(OCc5nccs5)c(Cl)c4)c3c2)=N1 [VARLITINIB]
IC50 [1]: 10 µM | IC50 [2]: 20 µM | IC50 [3]: 10 µM

C=C1C(=O)O[C@]2(C)CC[C@H](CBr)[C@]12OC
IC50 [4]: 8.63 µM | IC50 [5]: 7.91 µM | IC50 [6]: 6.61 µM

O=C(NC[C@H](O)CN1CCc2ccccc2C1)c1cc(NC2COC2)ncn1
IC50 [7]: 1 µM | IC50 [8]: 5 µM | IC50 [9]: 60 µM

CCN(CC)CCCCNc1ncc2cc(-c3cc(OC)cc(OC)c3)c(NC(=O)NC(C)(C)C)nc2n1 [PD-173074]
IC50 [10]: 0.02 µM

C[C@H]1[C@H](C)CC[C@]2(C(=O)N3CCNCC3)CC[C@]3(C)C(=CC[C@@H]4[C@@]5(C)Cc6cn[nH]c6C(C)(C)[C@@H]5CC[C@]43C)[C@H]12
IC50 [11]: 7 µM

Cc1nc(NCc2ccccc2F)ncc1C(=O)NCc1cccs1
IC50 [4]: 7.89 µM

O=C1COc2c(CCNCCN(C(=O)CCNCCc3ccc(Cl)c(Cl)c3)C3CCCCC3)ccc(O)c2N1
IC50 [12]: 20 µM

CC1=CC(=O)C(C(C)C)=CC1=O [THYMOQUINONE]
IC50 [13]: 8.2 µM

CN[C@@H](C)C(=O)N[C@H](C(=O)N1CCC[C@H]1c1nc(C(=O)c2ccc(F)cc2)cs1)C1CCCCC1 [LCL-161]
IC50 [14]: 0.0004 µM

CNCCC(Oc1ccc(C(F)(F)F)cc1)c1ccccc1 (configuration not stated) [FLUOXETINE]
IC50 [4]: 0.5 µM | IC50 [5]: 0.5 µM

CN(C)CC/C=C1\c2ccccc2COc2ccc(CC(=O)NN)cc21
IC50 [4]: 5 µM

Cc1cc(C=C2C(=O)C=CC2=O)cc(C)c1O
IC50 [15]: 51.1 µM | IC50 [16]: 27.5 µM

C=C(C)[C@@H]1CCC(C)=C[C@H]1c1c(O)cc(CCCCC)cc1O [CANNABIDIOL]
IC50 [17]: 6 µM

O=C(Nc1ccc([N+](=O)[O-])cc1Cl)c1cc(Cl)ccc1O [NICLOSAMIDE]
IC50 [5]: 0.625 µM

C=C1C(=O)O[C@@H]2/C=C(\C)[C@@H](O)C/C=C(/C)C[C@@H](OC(=O)/C(C)=C/CO)[C@@H]12
IC50 [18]: 3.21 µM | IC50 [19]: 3.04 µM

C=C1[C@H]2[C@@H](/C(=C/C)C(=O)[C@H]2CC(=O)C(C)CC)[C@H](C(C)C)N[C@H]1CC(=O)/C=C(\C)CC (some centres not stated)
IC50 [5]: 5 µM

CCNc1cc(O)c2c(c1)/C=C/C[C@H](O)[C@H](O)C(=O)/C=C\[C@@H](C)[C@H](C)OC2=O [E-6201]
IC50 [20]: 8.79 µM | IC50 [21]: 0.21 µM | IC50 [22]: 2.5 µM | IC50 [23]: 3.73 µM | IC50 [24]: 10.1 µM | IC50 [25]: 0.25 µM | IC50 [26]: 2.36 µM

CC(=O)N1c2ccccc2Oc2ccccc21
IC50 [5]: 0.3 µM

CO[C@H]1C[C@H](C)Cc2cc(O)cc(c2)NC(=O)/C(C)=C/CC[C@H](OC)[C@@H](OC(N)=O)/C(C)=C/[C@H](C)[C@H]1O
IC50 [27]: 74.9 µM

CCN(CC)C(=S)SSC(=S)N(CC)CC
IC50 [28]: 0.25 µM

N[C@@H](C(=O)N[C@@H]1C(=O)N2C(C(=O)O)=C(CSc3c[nH]nn3)CS[C@H]12)c1ccc(O)cc1 [CEFATRIZINE]
IC50 [4]: 30 µM

C=C1C(=O)O[C@@H]2C[C@@]3(C)CCC[C@H](C)C3=C[C@H]12 [HELENINE]
IC50 [5]: 15 µM
